The results in this text go back to ChEMBL document CHEMBL1144312, “Synthesis of mono-glucose-branched cyclodextrins with a high inclusion ability for doxorubicin and their efficient glycosylation using Mucor hiemalis endo-beta-N-acetylglucosaminidase” (Bioorg Med Chem Lett, 2005).

Assay [1] concerns doxorubicin (immobilized ligand, no protein target). Nature of the assay: Dissociation rate constant for cyclodextrin binding to immobilized doxorubicin by SPR biosensor. A general note: SPR reads the build-up and loss of mass on a sensor chip optically.
Assay [2] shares this test system. Nature of the assay: Association rate constant for cyclodextrin binding to immobilized doxorubicin by SPR biosensor.
For assay [3] the test system is unchanged. Nature of the assay: Association constant for cyclodextrin binding to immobilized doxorubicin by SPR biosensor.

Regarding `OCC1OC2OC3C(CO)OC(OC4C(CO)OC(OC5C(COCCCOc6ccc(O[C@@H]7O[C@@H](CO)[C@@H](O)[C@H](O)[C@@H]7O)cc6)OC(OC6C(CO)OC(OC7C(CO)OC(OC8C(CO)OC(OC1C(O)C2O)C(O)C8O)C(O)C7O)C(O)C6O)C(O)C5O)C(O)C4O)C(O)C3O` (stereo partly drawn), in assay [1], the K diss was 2.1 10E-2·1/s. In addition, in assay [2], the K ass is 4.6 10E3·1/M·1/s. For the same compound, the Ka in assay [3] was 220 10E3·1/M.
